Measured values published in ChEMBL document CHEMBL1201862, “PubChem BioAssay data set” (2004).
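Growth conditions: 96-well plates. Treatment: test compound, 48 hours, 5 concentrations. Analysis: linear interpolation between bracketing concentrations; unreached endpoints set to highest concentration. GI50 marks 50% less growth.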 Calls of active or inactive are those of the source. Rule as the data show it: active = GI50 up to about 1.1 µM and inactive = higher.

Assays:
Assay in all cases: inhibition of tumour cell growth, NCI panel, 48 h
DLD-1 = test system: DLD-1
DMS-114 = test system: DMS-114
DMS-273 = test system: DMS-273
HOP-18 = test system: HOP-18
LXFL 529 = test system: LXFL 529
M19-MEL = test system: M19-MEL
RXF 631 = test system: RXF 631
SNB-78 = test system: SNB-78
XF498 = test system: XF498

Measured: GI50

C/C(=N\NC(N)=S)c1ccc(C)c(C)c1
inactive: DLD-1 30.9 µM | DMS-114 16.6 µM | DMS-273 > 100 µM | HOP-18 30.6 µM | LXFL 529 19.4 µM | M19-MEL 35.7 µM | RXF 631 75.3 µM | SNB-78 > 100 µM | XF498 19.4 µM

CN(C(=O)c1ccc([N+](=O)[O-])cc1)c1ccccc1
inactive: DLD-1 > 100 µM | DMS-114 > 10 µM | DMS-273 > 100 µM | HOP-18 > 100 µM | LXFL 529 > 100 µM | M19-MEL > 100 µM | RXF 631 > 100 µM | SNB-78 > 100 µM | XF498 > 100 µM

O=[N+]([O-])c1ccc(C2=Nn3c(nnc3-c3ccc(Cl)cc3)SC2)o1
inactive: DLD-1 2.06 µM | DMS-114 4.11 µM | DMS-273 14 µM | HOP-18 19.2 µM | LXFL 529 4.67 µM | M19-MEL 2.78 µM | RXF 631 10.9 µM | SNB-78 15.8 µM | XF498 14.3 µM
